Here are results for two compounds from patent publication US9314420B2, “Acellular bioabsorbable tissue regeneration matrices” (priority 2005, dated 2016).

Like-named read-outs stand apart in the source and are kept apart here.

For data set [1], the system named is Neuroscreen® cells. In words: Neuroscreen cell neurite outgrowth assay. Conditions: standard NGF response curve. It counts as cell-based, rat. As to the method: The Neuroscreen® cells responded by extending neurites.
Neuroscreen® cells were maintained prior to the interaction assay by routine culture on collagen coated plastic and subcultured at confluence using basal medium consisting of RPMI (Cat #10-040-CV, Mediatech), 4.0 mM Glutamine (CAT #25-005-CI, Mediatech) supplemented with 20% Horse Serum (Cat #35-030-CV, Mediatech), 10% Fetal Bovine Serum (Cat #35-010, Mediatech).
[…] Neuroscreen® cells were assayed for the formation of neurite process extension using immuno-staining for β-tubulin as follows. Cells were fixed after 4 days in culture by adding 10% v/v of 37% formaldehyde (Cat. #2106-01, J. T. Baker) directly to the culture medium in the well. […]
Only wells with cell counts above 100 cells per field were analyzed. […]
Human peripheral blood collected into ten 8 ml Vacutainer™ tubes containing K2EDTA was shipped overnight on ice and then placed vertically into a +4° C. fridge for 6 hours in order to allow the blood to gravity separate. […] After thoroughly mixing the contents of each conical tube, 10 ml quantities of the solutions were injected into separate sets of 5 Opticells™, and then placed horizontally into a 37° C., […], 2% O2, non-humidified incubator. […]

The test system of data set [2] is Fibroblast control cultures. The settings on record: by day 7. The protocol:
The inhibitors were added on day 0 to the Opticells® on the day of first feeding (day 5 or 6). Thereafter, cultures were fed with regular media. Samples from the respective treatments and controls were collected on day 21 and analyzed.
Fibroblast control cultures containing 0, 10, 30 and 100 nM of α-amanitin were cultured for one week.

On to “NGF: nerve growth factor, positive control at 100 ng/ml”, for which the “Effect of fresh NGF at amounts less than 10 ng per well” value in data set [1] is recorded as “limited or no effect”. Moreover, the “NGF amount at which maximal responses occur” value in data set [1] (fresh NGF) was 100 ng of NGF per well.
In the case of `CC[C@H](C)[C@@H]1NC(=O)CNC(=O)[C@@H]2Cc3c([nH]c4cc(O)ccc34)[S+]([O-])C[C@@H](NC(=O)CNC1=O)C(=O)N[C@@H](CC(N)=O)C(=O)N1C[C@H](O)C[C@H]1C(=O)N[C@@H]([C@@H](C)[C@@H](O)CO)C(=O)N2` (stereo in doubt) [α-amanitin], the Mortality in data set [2] (10 nM) was 60-70%; in data set [2] (30 nM) it was 80-90%; in data set [2] (100 nM) it was roughly 100%.
